Read-outs that look alike come from different tables or passages of the source.
Experiments:
[1] = system: T. brucei rhodesiense STIB900; format: in vivo, mice; settings: for cures: number of mice that survive and are parasite free for 60 days; for toxicity in the in vivo model (mice died due to toxicity): infected mice
[2] = system: Plasmodium falciparum (K1, resistant to chloroquine); assay: In vitro growth inhibition assay of P. falciparum; format: cell-based; settings: for IC50: Plasmodium falciparum
[3] = system: Leishmania donovani (MHOM/SD/62/1S-CL2D) axenic amastigotes; assay: Antileishmanial assay; format: cell-based; settings: for activity against L. donovani (in words): in vitro, axenic amastigotes
[4] = system: Trypanosoma brucei rhodesiense (STIB900); assay: In vitro growth inhibition assay of T. brucei rhodesiense; format: cell-based; settings: for SIT, selectivity index for T. brucei rhodesiense: ratio IC50 (L6)/IC50 (T. brucei rhodesiense)
L6 rat myoblast cells = assay: In vitro cytotoxicity assay; format: cell-based; settings: L6 cells; relative to 5,5′-disubstituted analogue 1
[5] = In vitro cytotoxicity assay; format: cell-based, rat; settings: rat
[6] = K1, read-out: antiplasmodial IC50, P. falciparum, in vitro
[7] = relative to bis(N-isopropyl)amidine 32

With Cl.Cl.N=C(N)c1cccc(-c2cn(-c3cccc(C(=N)N)c3)nn2)c1 [Compound 1, 1,4-Bis(3-amidinophenyl)-1H-1,2,3-triazole Dihydrochloride] the cures ([1]; 4 × 5 mg/kg ip) was “no activity”, the IC50 [2, 6] was less than 58 nM and the “activity against L. donovani (in words)” value [3] was “active”.

With COc1ccc(C2=NCCN2)cc1-c1cn(-c2cccc(C3=NCCN3)c2)nn1.Cl.Cl [Compound 9, 4-[5-(4,5-Dihydro-1H-imidazol-2-yl)-2-methoxyphenyl]-1-[3-(4,5-dihydro-1H-imidazol-2-yl)phenyl]-1H-1,2,3-triazole Dihydrochloride] the cures ([1]; 4 × 1 mg/kg ip) was “no cures”, the IC50 [2, 6] was less than 58 nM and the “fold more active against P. falciparum” value ([2]; relative to diimidazoline 3) was 26 fold. The “SIT, selectivity index for T. brucei rhodesiense” value (shortened to “SIT, selectivity index”) [4] was greater than 29333, the “times as active against T. brucei rhodesiense” value ([4]; relative to unsubstituted analogue 3) was roughly 2350 times and the “activity against L. donovani (in words)” value [3] was “active”.

With Cl.Cl.N=C(N)c1cccc(-n2cc(-c3cc(C(=N)N)ccc3O)nn2)c1 [Compound 13, 4-(5-Amidino-2-hydroxyphenyl)-1-(3-amidinophenyl)-1H-1,2,3-triazole Dihydrochloride] the IC50 [2, 6] was less than 58 nM, the “fold less active against T. brucei rhodesiense” value ([4]; relative to diamidine 1) was 2 fold and the “activity against L. donovani (in words)” value [3] was “active”.

In the case of CC(C)NC(=N)c1ccc(-n2cc(-c3cccc(C(=N)NC(C)C)c3)nn2)cc1.Cl.Cl [Compound 17, 1-(4-N-Isopropylamidinophenyl)-4-(3-N-isopropylamidinophenyl)-1H-1,2,3-triazole Dihydrochloride], the IC50 [2, 6] is reported as less than 58 nM and the “fold less active against T. brucei rhodesiense” value ([4]; relative to diamidine 16) is reported as 67 fold.

With COc1cc(C(=N)N)ccc1-n1cc(-c2cccc(C(=N)N)c2)nn1.Cl.Cl [Compound 19, 1-(4-Amidino-2-methoxyphenyl)-4-(3-amidinophenyl)-1H-1,2,3-triazole Dihydrochloride] the IC50 [2, 6] was less than 58 nM, the “SIT, selectivity index” value [4] was greater than 17455 and the “activity against L. donovani (in words)” value [3] was “active”.

In the case of COc1cc(C(=N)NC(C)C)ccc1-n1cc(-c2cccc(C(=N)NC(C)C)c2)nn1.Cl.Cl [Compound 20, 1-(4-N-Isopropylamidino-2-methoxyphenyl)-4-(3-N-isopropylamidinophenyl)-1H-1,2,3-triazole Dihydrochloride], the IC50 [2, 6] is reported as less than 58 nM and the “fold less active against T. brucei rhodesiense” value ([4]; relative to congener 19) is reported as 178 fold.

For COc1ccc(C(=N)N)cc1-c1cn(-c2ccc(C(=N)N)cc2)nn1.Cl.Cl [Compound 22, 4-(5-Amidino-2-methoxyphenyl)-1-(4-amidinophenyl)-1H-1,2,3-triazole Dihydrochloride], the cures ([1]; 4 × 5 mg/kg ip) was “curing at least two out of four animals”, the IC50 [2, 6] was less than 58 nM and the “SIT, selectivity index” value [4] was greater than 24750. For the same compound, the “activity against L. donovani (in words)” value [3] was “active”.

With COc1ccc(C(=N)NC(C)C)cc1-c1cn(-c2ccc(C(=N)NC(C)C)cc2)nn1.Cl.Cl [Compound 23, 4-(5-N-Isopropylamidino-2-methoxyphenyl)-1-(4-N-isopropylamidinophenyl)-1H-1,2,3-triazole Dihydrochloride] the “toxicity in the in vivo model (mice died due to toxicity)” value ([1]; 4 × 5 mg/kg ip, 5 mg/kg) was “toxic” and the IC50 [2, 6] was less than 58 nM.

With Cl.Cl.N=C(N)c1ccc(-n2cc(-c3cc(C(=N)N)ccc3O)nn2)cc1 [Compound 28, 4-(5-Amidino-2-hydroxyphenyl)-1-(4-amidinophenyl)-1H-1,2,3-triazole Dihydrochloride] the IC50 [2, 6] was less than 58 nM and the “activity against L. donovani (in words)” value [3] was “active”.

For Cl.Cl.Oc1ccc(C2=NCCN2)cc1-c1cn(-c2ccc(C3=NCCN3)cc2)nn1 [Compound 30, 4-[5-(4,5-Dihydro-1H-imidazol-2-yl)-2-hydroxyphenyl]-1-[4-(4,5-dihydro-1H-imidazol-2-yl)phenyl]-1H-1,2,3-triazole Dihydrochloride], the IC50 [2, 6] was less than 58 nM and the “activity against L. donovani (in words)” value [3] was “active”.

For Cl.Cl.N=C(N)c1ccc(-c2cn(-c3cccc(C(=N)N)c3)nn2)cc1 [Compound 31, 1-(3-Amidinophenyl)-4-(4-amidinophenyl)-1H-1,2,3-triazole Dihydrochloride], the cures ([1]; 4 × 5 mg/kg ip) was “curing one out of four mice”.

With CC(C)NC(=N)c1ccc(-c2cn(-c3cccc(C(=N)NC(C)C)c3)nn2)cc1.Cl.Cl [Compound 32, 1-(3-N-Isopropylamidinophenyl)-4-(4-N-isopropylamidinophenyl)-1H-1,2,3-triazole Dihydrochloride] the IC50 [2, 6] was less than 58 nM and the “fold less active against T. brucei rhodesiense” value ([4]; relative to diamidine 31) was 77 fold.

In the case of COc1cc(C(=N)N)ccc1-c1cn(-c2cccc(C(=N)N)c2)nn1.Cl.Cl [Compound 37, 4-(4-Amidino-2-methoxyphenyl)-1-(3-amidinophenyl)-1H-1,2,3-triazole Dihydrochloride], the cures ([1]; 4 × 1 mg/kg ip) is reported as “no cures” and the IC50 [2, 6] is reported as less than 58 nM.

With COc1cc(C(=N)NC(C)C)ccc1-c1cn(-c2cccc(C(=N)NC(C)C)c2)nn1.Cl.Cl [Compound 38, 4-(4-N-Isopropylamidino-2-methoxyphenyl)-1-(3-N-isopropylamidinophenyl)-1H-1,2,3-triazole Dihydrochloride] the IC50 [2, 6] was less than 58 nM and the “fold less active against T. brucei rhodesiense” value ([4]; relative to diamidine 37) was 141 fold.

In the case of CC(C)NC(=N)c1ccc(-c2cn(-c3cc(C(=N)NC(C)C)ccc3O)nn2)cc1.Cl.Cl [Compound 41, 1-(5-N-Isopropylamidino-2-hydroxyphenyl)-4-(4-N-isopropylamidinophenyl)-1H-1,2,3-triazole Dihydrochloride], the “fold less active against P. falciparum” value [2, 7] is reported as 123 fold and the “fold less active against T. brucei rhodesiense” value [4, 7] is reported as 33 fold.

In the case of Cl.Cl.N=C(N)c1cccc(-n2cc(-c3ccc(C(=N)N)cc3O)nn2)c1 [Compound 43, 4-(4-Amidino-2-hydroxyphenyl)-1-(3-amidinophenyl)-1H-1,2,3-triazole Dihydrochloride], the cures ([1]; 4 × 5 mg/kg ip) is reported as “curing at least two out of four animals”, the IC50 [2, 6] is reported as less than 58 nM and the “SIT, selectivity index” value [4] is reported as greater than 26250.

For Cl.Cl.N=C(N)c1ccc(-c2cn(-c3ccc(C(=N)N)cc3)nn2)cc1 [Compound 46, 1,4-Bis(4-amidinophenyl)-1H-1,2,3-triazole Dihydrochloride], the cures ([1]; 4 × 0.5 mg/kg ip) was “no cures”, the IC50 [2, 6] was less than 58 nM and the fold increased cytotoxicity (L6 rat myoblast cells) was roughly 25 fold.

In the case of CC(C)NC(=N)c1ccc(-c2cn(-c3ccc(C(=N)NC(C)C)cc3)nn2)cc1.Cl.Cl [Compound 47, 1,4-Bis(4-N-isopropylamidinophenyl)-1H-1,2,3-triazole Dihydrochloride], the “toxicity in the in vivo model (mice died due to toxicity)” value ([1]; 4 × 5 mg/kg ip) is reported as “toxic” and the IC50 [2, 6] is reported as less than 58 nM.

In the case of COc1cc(C(=N)N)ccc1-c1cn(-c2ccc(C(=N)N)cc2)nn1.Cl.Cl [Compound 52, 4-(4-Amidino-2-methoxyphenyl)-1-(4-amidinophenyl)-1H-1,2,3-triazole Dihydrochloride], the cures ([1]; 4 × 5 mg/kg ip) is reported as “curing at least two out of four animals”.

For C[C@@H]1CC[C@H]2[C@@H](C)C(=O)O[C@@H]3O[C@@]4(C)CC[C@@H]1[C@]32OO4 [artemisinin, reference compound], the “SIP, selectivity index for P. falciparum” value ([2]; ratio IC50 (L6)/IC50 (P. falciparum)) was 75000 and the IC50 at 70 h [5] was 450000 nM.

Compound CCN(CC)CCCC(C)Nc1ccnc2cc(Cl)ccc12 (stereo not drawn) [chloroquine, reference compound] has an IC50 ([2]; K1, read-out: P. falciparum IC50) of 124 nM and an IC50 at 70 h [5] of 117000 nM.

Nc1nc(N)nc(Nc2ccc([As]3SCC(CO)S3)cc2)n1 (stereo not drawn) [melarsoprol] showed an IC50 at 70 h [5] of 7780 nM.

N=C(N)c1ccc(OCCCCCOc2ccc(C(=N)N)cc2)cc1 [pentamidine, 1,5-bis(4-amidinophenoxy)pentane, reference compound] gave an IC50 ([3]; Leishmania donovani, read-out: L. donovani IC50) of 1800 nM.

With COc1cc([C@@H]2c3cc4c(cc3[C@H](O)[C@H]3COC(=O)[C@H]23)OCO4)cc(OC)c1OC [podophyllotoxin] the IC50 at 70 h [5] was 20 nM.

Reference: publication PMC3113660 (Journal of medicinal chemistry, 2010)
